Results published in US20090170882A1, “Methods and compositions” (priority 2004, published 2009).

How the values were obtained:
A549 cells = details: data provided by National Cancer Institute, Developmental Therapeutic Program; cited from earlier work
[1] = system: tumor cell lines including SKOV3 and Colo205; assay: Inhibition of cellular proliferation in tumor cell lines (MTS, 48 hours); format: cell-based, human; details: various tumor cell lines including SKOV3 and Colo205; 'typically'
Procedure: Cells were plated in 96-well plates at densities from 1000-2500 cells/well of a 96-well plate and allowed to adhere/grow for 24 hours. They were then treated with various concentrations of drug for 48 hours. The time at which compounds are added is considered T0. A tetrazolium-based assay using the reagent 3-(4,5-dimethylthiazol-2-yl)-5-(3-carboxymethoxyphenyl)-2-(4-sulfophenyl)-2H-tetrazolium (MTS) (U.S. Pat. No. 5,185,450) (see Promega product catalog #G3580, CellTiter 96® AQueous One Solution Cell Proliferation Assay) was used to determine the number of viable cells at T0 and the number of cells remaining after 48 hours compound exposure. The number of cells remaining after 48 hours was compared to the number of viable cells at the time of drug addition, allowing for calculation of growth inhibition.
The growth over 48 hours of cells in control wells that had been treated with vehicle only (0.25% DMSO) is considered 100% growth and the growth of cells in wells with compounds is compared to this.
An IC50 was calculated by plotting the concentration of compound in μM vs the percentage of cell growth of cell growth in treated wells. The IC50 calculated for the compounds is the estimated concentration at which growth is inhibited by 50% compared to control, i.e., the concentration at which:
All concentrations of compounds are tested in duplicate and controls are averaged over 12 wells. A very similar 96-well plate layout and IC50 calculation scheme is used by the National Cancer Institute (see Monks, et al., J. Natl. Cancer Inst. 83:757-766 (1991)).

KSP motor domain = biological target: T1, KSP motor domain (Homo sapiens, UniProt P52732); assay: KSP ATPase assay (IC50 for KSP activity); format: biochemical
T1 construct: 100 nM KSP motor domain, 50 μg/ml microtubules
T1 sequence (P52732 18-359 limits assumed): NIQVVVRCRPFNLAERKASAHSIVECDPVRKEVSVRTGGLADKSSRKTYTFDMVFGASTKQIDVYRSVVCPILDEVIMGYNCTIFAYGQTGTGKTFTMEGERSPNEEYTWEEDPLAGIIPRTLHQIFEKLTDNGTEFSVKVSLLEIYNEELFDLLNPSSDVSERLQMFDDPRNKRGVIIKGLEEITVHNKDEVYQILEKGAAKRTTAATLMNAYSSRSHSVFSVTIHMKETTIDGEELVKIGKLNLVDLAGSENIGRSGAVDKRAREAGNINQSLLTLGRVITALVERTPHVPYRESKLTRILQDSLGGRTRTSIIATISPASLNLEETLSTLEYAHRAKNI
Procedure: One measure of inhibition is IC50, defined as the concentration of the composition at which the activity of KSP is decreased by fifty percent relative to a control. Preferred compositions have […] of less than about 1 mM, with preferred embodiments having IC50's of less than about 100 μM, with more preferred embodiments having IC50's of less than about 10 μM, with particularly preferred embodiments having IC50's of less than about 1 μM, and especially preferred embodiments having IC50's of less than about 100 nM, and with the most preferred embodiments having IC50's of less than about 10 nM. Measurement of IC50 is done using an ATPase assay.
Measurement of a composition's IC50 for KSP activity uses an ATPase assay. The following solutions are used: Solution 1 consists of 3 mM phosphoenolpyruvate potassium salt (Sigma P-7127), 2 mM ATP (Sigma A-3377), 1 mM DTT (Sigma D-9779), 5 μM paclitaxel (Sigma T-7402), 10 ppm antifoam 289 (Sigma A-8436), 25 mM Pipes/KOH pH 6.8 (Sigma P6757), 2 mM MgC12 (VWR JT400301), and 1 mM EGTA (Sigma E3889). Solution 2 consists of 1 mM NADH (Sigma N8129), 0.2 mg/ml BSA (Sigma A7906), pyruvate kinase 7 U/ml, L-lactate dehydrogenase 10 U/ml (Sigma P0294), 100 nM KSP motor domain, 50 μg/ml microtubules, 1 mM DTT (Sigma D9779), 5 μM paclitaxel (Sigma T-7402), 10 ppm antifoam 289 (Sigma A-8436), 25 mM Pipes/KOH pH 6.8 (Sigma P6757), 2 mM MgC12 (VWR JT4003-01), and 1 mM EGTA (Sigma E3889). Serial dilutions (8-12 two-fold dilutions) of the composition are made in a 96-well microtiter plate (Corning Costar 3695) using Solution 1. Following serial dilution each well has 50 μl of Solution 1. The reaction is started by adding 50 μl of solution 2 to each well. This may be done with a multichannel pipettor either manually or with automated liquid handling devices. The microtiter plate is then transferred to a microplate absorbance reader and multiple absorbance readings at 340 nm are taken for each well in a kinetic mode. The observed rate of change, which is proportional to the ATPase rate, is then plotted as a function of the compound concentration. For a standard IC50 determination the data acquired is fit by the following four parameter equation using a nonlinear fitting program (e.g., Grafit 4): […]
where y is the observed rate and x the compound concentration. […] By this we mean that although most of the compounds that inhibited KSP activity biochemically did inhibit cell proliferation, for some, at the highest concentration tested (generally about 20 μM), cell growth was inhibited less than 50%. […] Anti-proliferative compounds that have been successfully applied in the clinic to treatment of cancer (cancer chemotherapeutics) have IC50's that vary greatly. […]

SMILES | IC50 (A549 cells) | IC50 for inhibition of proliferation of tumor cell lines [1] | IC50 for inhibition of KSP (KSP motor domain)
NC(=O)NO [hydroxyurea] | 500 µM |  | 
CC(=O)O[C@H]1C(=O)[C@@]2(C)[C@H]([C@H](OC(=O)c3ccccc3)[C@]3(O)C[C@H](OC(=O)[C@H](O)[C@@H](NC(=O)c4ccccc4)c4ccccc4)C(C)=C1C3(C)C)[C@]1(OC(C)=O)CO[C@@H]1C[C@@H]2O [paclitaxel] | 0.004 µM |  | 
O=c1[nH]cc(F)c(=O)[nH]1 [5-fluorouracil] | 1 µM |  | 
NC(=O)Nc1ccc2[nH]c3ccc(C(F)(F)F)cc3c2c1 [(6-Trifluoromethyl-9H-carbazol-3-yl)-urea] |  | not active | not active
Nc1cccc2c1[nH]c1ccc(C(F)(F)F)cc12 [6-(trifluoromethyl)-9H-carbazol-1-ylamine] |  | not active | not active
CS(=O)(=O)Nc1ccc2[nH]c3ccc(C(F)(F)F)cc3c2c1 [6-(trifluoromethyl-9H-carbazol-3-yl)-methanesulfonamide] |  | not active | not active
CS(=O)(=O)Nc1cccc2c1[nH]c1ccc(C(F)(F)F)cc12 [N-[6-(trifluoromethyl)-9H-carbazol-1-yl]methanesulfonamide] |  | not active | not active
COc1cccc2c1C(=O)c1c(O)c3c(c(O)c1C2=O)C[C@@](O)(C(=O)CO)C[C@@H]3O[C@H]1C[C@H](N)[C@H](O)[C@H](C)O1 [doxorubicin] | 0.063 µM |  | 
